In the experiment the target is ROCK2 (Homo sapiens (Human), UniProt O75116). The experiment in a line: ROCK2 kinase IC50 assay (CISBIO HTRF KinEASE-STK S2 kit). In kind it is biochemical. The following applies: ROCK2 from Carna Biosciences, 2 h incubation at room temperature. The gist of the method:
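ROCK2 reaction with STK-S2 substrate and ATP (5× working solutions 1.5 μM each), 2 h at room temperature; 9-point compound dilutions from 10000 nM. HTRF 665/615 emission ratio gave % inhibition versus kinase and no-kinase controls; IC50 by curve fit.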
(In general: TR-FRET usually uses a lanthanide donor and a delayed reading to cut background.)

Sequence of ROCK2 (O75116 1-553): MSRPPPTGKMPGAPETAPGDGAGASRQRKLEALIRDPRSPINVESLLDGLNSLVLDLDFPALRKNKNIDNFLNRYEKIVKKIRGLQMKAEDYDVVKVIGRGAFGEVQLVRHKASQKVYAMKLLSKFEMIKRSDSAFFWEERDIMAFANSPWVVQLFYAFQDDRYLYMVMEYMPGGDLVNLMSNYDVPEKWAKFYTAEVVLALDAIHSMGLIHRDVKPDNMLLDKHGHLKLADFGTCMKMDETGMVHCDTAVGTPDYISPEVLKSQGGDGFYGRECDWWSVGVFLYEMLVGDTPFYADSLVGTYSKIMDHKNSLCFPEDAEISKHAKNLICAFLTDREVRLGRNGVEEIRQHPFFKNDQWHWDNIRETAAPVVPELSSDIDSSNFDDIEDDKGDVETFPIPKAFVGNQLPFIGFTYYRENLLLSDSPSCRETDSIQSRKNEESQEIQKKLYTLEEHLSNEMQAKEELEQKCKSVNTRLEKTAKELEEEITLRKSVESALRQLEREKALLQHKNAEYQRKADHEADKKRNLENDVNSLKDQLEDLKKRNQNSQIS

In turn, `CC(CO)NC(=O)c1cc2ccc(-c3nccc(Nc4ccc5[nH]ncc5c4)n3)cc2[nH]1` (stereo not drawn) [TDI01176, 6-(4-((1H-indazol-5-yl)amino)pyrimidin-2-yl)-N-(1-hydroxypropan-2-yl)-1H-indole-2-carboxamide] gave an IC50 of 28 nM. As to `O=C(Nc1ccc2[nH]ncc2c1)c1cc2ccc(-c3nccc(Nc4ccc5[nH]ncc5c4)n3)cc2[nH]1` [TDI01182, 6-(4-((1H-indazol-5-yl)amino)pyrimidin-2-yl)-N-(1H-indazol-5-yl)-1H-indole-2-carboxamide], 46 nM corresponded to half-maximal inhibition (IC50). Regarding `CN(C(=O)c1cc2ccc(-c3nccc(Nc4ccc(-c5cn[nH]c5)cc4)n3)cc2[nH]1)C1CCOCC1` [TDI01381], the IC50 came out at 341 nM. `CN(C(=O)c1cc2ccc(-c3nccc(Nc4ccc(-c5cn[nH]c5)cc4)n3)cc2[nH]1)C(CO)CO` [TDI01344-2A, 6-(4-((4-(1H-pyrazol-4-yl)phenyl)amino)pyrimidin-2-yl)-N-(1,3-dihydroxypropan-2-yl)-N-methyl-1H-indole-2-carboxamide]: inhibition was half-maximal at 107 nM (IC50). `CC(C)NC(=O)c1cc2ccc(-c3nc(Nc4ccc5[nH]ncc5c4)c4sccc4n3)cc2s1` [TDI01136, 6-(4-((1H-indazol-5-yl)amino)thieno[3,2-d]pyrimidin-2-yl)-N-isopropylbenzo[b]thiophene-2-carboxamide] gave an IC50 of 66 nM. The compound `C[C@@H](NC(=O)c1cc2ccc(-c3nccc(Nc4ccc(-c5cn[nH]c5)cc4)n3)cc2[nH]1)c1ccncc1` [TDI01849B, (R)-6-(4-((4-(1H-pyrazol-4-yl)phenyl)amino)pyrimidin-2-yl)-N-(1-(pyridin-4-yl)ethyl)-1H-indole-2-carboxamide] had an IC50 of 210 nM. For the compound `CC(C)NC(=O)c1cc2ccc(-c3nccc(Nc4ccc5[nH]ncc5c4)n3)cc2o1` [TDI01102, 6-(4-((1H-indazol-5-yl)amino)pyrimidin-2-yl)-N-isopropylbenzofuran-2-carboxamide], the IC50 came to 110 nM. The compound `CN(CC#N)C(=O)c1cc2ccc(-c3nccc(Nc4ccc(-c5cn[nH]c5)cc4)n3)cc2[nH]1` [TDI01430] returned a half-maximal inhibitory concentration (IC50) of 116 nM. The figure for `CCN(CC)C(=O)c1cc2ccc(-c3nccc(Nc4ccc(-c5cn[nH]c5)cc4)n3)cc2[nH]1` [TDI01332, 6-(4-((4-(1H-pyrazol-4-yl)phenyl)amino)pyrimidin-2-yl)-N,N-diethyl-1H-indole-2-carboxamide] is 257 nM; for `O=C(NC1CCOCC1)c1cc2ccc(-c3nccc(Nc4ccc5[nH]ncc5c4)n3)cc2[nH]1` [TDI01291, 6-(4-((1H-indazol-5-yl)amino)pyrimidin-2-yl)-N-(tetrahydro-2H-pyran-4-yl)-1H-indole-2-carboxamide] it is 32 nM; for `O=C(NC1CCOC1)c1cc2ccc(-c3nccc(Nc4ccc(-c5cn[nH]c5)cc4)n3)cc2[nH]1` (stereo not drawn) [TDI01337, 6-(4-((4-(1H-pyrazol-4-yl)phenyl)amino)pyrimidin-2-yl)-N-(tetrahydrofuran-3-yl)-1H-indole-2-carboxamide] it is 121 nM.

For the compound `CC(C)(C)OC(=O)n1cc(NC(=O)c2cc3ccc(-c4nccc(Nc5ccc6[nH]ncc6c5)n4)cc3[nH]2)cn1` [TDI01200, tert-butyl 4-(6-(4-((1H-indazol-5-yl)amino)pyrimidin-2-yl)-1H-indole-2-carboxamido)-1H-pyrazole-1-carboxylate], the IC50 amounted to 23 nM.

`CC(C)NC(=O)c1ccc2ccc(-c3nccc(Nc4ccc5[nH]ncc5c4)n3)cc2n1` [TDI01327, 7-(4-((1H-indazol-5-yl)amino)pyrimidin-2-yl)-N-isopropylquinoline-2-carboxamide] gave an IC50 of 472 nM. Turning to `C[C@H](CN)NC(=O)c1cc2ccc(-c3nccc(Nc4ccc(-c5cn[nH]c5)cc4)n3)cc2[nH]1` [TDI01855, (R)-6-(4-((4-(1H-pyrazol-4-yl)phenyl)amino)pyrimidin-2-yl)-N-(1-aminopropan-2-yl)-1H-indole-2-carboxamide], the half-inhibitory concentration (IC50) came out at 147 nM. `CC(C)NC(=O)N1Cc2ccc(-c3nccc(Nc4ccc5[nH]ncc5c4)n3)cc2C1` [TDI01312, 5-(4-((1H-indazol-5-yl)amino)pyrimidin-2-yl)-N-isopropylisoindoline-2-carboxamide] yielded an IC50 of 73 nM.

By IC50 is commonly meant the concentration that inhibits the measured activity by half. A high value points to weaker potency.

Values taken from patent US10329282B2, “Rho-associated protein kinase inhibitor, pharmaceutical composition comprising the same, as well as preparation method and use thereof” (Beijing Tide Pharmaceutical Co., Ltd., priority 2017, dated 2019).
